US20150132813A1, “BIOSYNTHETIC PATHWAYS, RECOMBINANT CELLS, AND METHODS” (REGENTS OF THE UNIVERSITY OF MINNESOTA, priority 2012, published 2015)

Test system: α-ketoglutaric semialdehyde dehydrogenase KDHba
Experiment: Enzymatic assay of KDHba (NADH absorbance at 340 nm)
Assay type: biochemical, Burkholderia ambifaria
[1] = substrate of KDHba, pH 8.0, 0.5 mM NAD+

In the case of `CCCCC=O` [Valeraldehyde, valeraldehyde], the Km [1] is reported as 31 µM, the kcat [1] is reported as 8.69 ± 0.26 s⁻¹ and the “specificity constant (kcat/KM) of KDHba, fold higher than toward isobutyraldehyde” value (versus isobutyraldehyde) is reported as 1260 fold. The “specificity constant (kcat/KM) of KDHba, fold higher than toward isovaleraldehyde” value (versus isovaleraldehyde) was 308 fold.
